# Source: patent publication US20220177508A1, “C10-Cyclic Substituted 13-Membered Macrolides and Uses Thereof” (Zikani Therapeutics, Inc., priority 2018, published 2022)
# Legend:
# Type in all cases: cell-based
# A. baumannii MP-15 = assay: Broth dilution MIC determination (CLSI), A. baumannii MP-15; conditions: strain MP-15, broth dilution; for MIC: Acinetobacter baumannii, MP15, read-out: MIC A. baumanii MP-15
# S. aureus MP-12 = assay: Broth dilution MIC determination (CLSI), S. aureus MP-12; conditions: strain MP-12, broth dilution; for MIC: Staphylococcus aureus, MP12
# P. aeruginosa MP-3 = assay: Broth dilution MIC determination (CLSI), P. aeruginosa MP-3; conditions: strain MP-3, broth dilution; for MIC: Pseudomonas aeruginosa, MP3
# K. pneumoniae MP-546 = assay: Broth dilution MIC determination (CLSI), K. pneumoniae MP-546; conditions: strain MP-546, broth dilution; for MIC: Klebsiella pneumoniae, MP546
# E. coli MP-4 = assay: Broth dilution MIC determination (CLSI), E. coli MP-4; conditions: strain MP-4, broth dilution; for MIC: Escherichia coli, MP4, read-out: MIC E. coli MP-4
# K. pneumoniae MP-648 = assay: Broth dilution MIC determination (CLSI), K. pneumoniae MP-648; conditions: strain MP-648, broth dilution; for MIC: Klebsiella pneumoniae, MP648
Structure (SMILES),MIC (A. baumannii MP-15) [µg/mL],MIC (S. aureus MP-12) [µg/mL],MIC (P. aeruginosa MP-3) [µg/mL],MIC (K. pneumoniae MP-546) [µg/mL],MIC (E. coli MP-4) [µg/mL],MIC (K. pneumoniae MP-648) [µg/mL],MIC A. baumanii MP-15 (A. baumannii MP-15),MIC S. aureus MP-12 (S. aureus MP-12),MIC P aeruginosa MP-3 (P. aeruginosa MP-3),MIC K. pneumoniae MP-546 (K. pneumoniae MP-546),MIC E. coli MP-4 (E. coli MP-4),MIC K. pneumoniae MP-648 (K. pneumoniae MP-648)
"CO[C@]1(C)C[C@@H](C)CN(C)[C@@H](C2CCN(CC3CC3)CC2)COC(=O)C(C)(C)C(=O)[C@H](C)[C@H]1O[C@@H]1O[C@H](C)C[C@H](N(C)C)[C@H]1O [Compound 108, (3S,6R,8R,9R,10R)-3-(1-(cyclopropylmethyl)piperidin-4-yl)-9-(((2S,3R,4S,6R)-4-(dimethylamino)-3-hydroxy-6-methyltetrahydro-2H-pyran-2-yl)oxy)-8-methoxy-4,6,8,10,12,12-hexamethyl-1-oxa-4-azacyclotridecane-11,13-dione]",> 32,4 to 32,> 32,< 4,< 4,< 4,–,–,–,–,–,–
"CO[C@]1(C)C[C@@H](C)CN(C)[C@H](C2CN(C(=O)CC(C)(C)CN(C)CC3CC3)C2)COC(=O)C(C)(C)C(=O)[C@H](C)[C@H]1O[C@@H]1O[C@H](C)C[C@H](N(C)C)[C@H]1O [Compound 25, (3R,6R,8R,9R,10R)-3-(1-(4-((cyclopropylmethyl)(methyl)amino)-3,3-dimethylbutanoyl)azetidin-3-yl)-9-(((2S,3R,4S,6R)-4-(dimethylamino)-3-hydroxy-6-methyltetrahydro-2H-pyran-2-yl)oxy)-8-methoxy-4,6,8,10,12,12-hexamethyl-1-oxa-4-azacyclotridecane-11,13-dione]",> 32,4 to 32,> 32,< 4,< 4,4 to 32,–,–,–,–,–,–
"CO[C@]1(C)C[C@@H](C)CN(C)[C@H](C2CC(N(C)CC(C)C)C2)COC(=O)C(C)(C)C(=O)[C@H](C)[C@H]1O[C@@H]1O[C@H](C)C[C@H](N(C)C)[C@H]1O (stereo partly drawn) [Compound 187, (3R,6R,8R,9R,10R)-9-(((2S,3R,4S,6R)-4-(dimethylamino)-3-hydroxy-6-methyltetrahydro-2H-pyran-2-yl)oxy)-3-((1S,3S)-3-(isobutyl(methyl)amino)cyclobutyl)-8-methoxy-4,6,8,10,12,12-hexamethyl-1-oxa-4-azacyclotridecane-11,13-dione]",–,–,–,–,–,–,+ (values greater than 32 mg/L),+ (values greater than 32 mg/L),+ (values greater than 32 mg/L),+++ (values less than or equal to 4 mg/L),+++ (values less than or equal to 4 mg/L),++ (values of greater than 4 mg/L and less than or equal to 32 mg/L)
"CCCN1C[C@H](C)C[C@@](C)(OC)[C@H](O[C@@H]2O[C@H](C)C[C@H](N(C)C)[C@H]2O)[C@@H](C)C(=O)C(C)(C)C(=O)OC[C@H]1[C@H]1C[C@H](N(C)CC2CC2)C1 [Compound 95, (3R,6R,8R,9R,10R)-3-((1r,3R)-3-((cyclopropylmethyl)(methyl)amino)cyclobutyl)-9-(((2S,3R,4S,6R)-4-(dimethylamino)-3-hydroxy-6-methyltetrahydro-2H-pyran-2-yl)oxy)-8-methoxy-6,8,10,12,12-pentamethyl-4-propyl-1-oxa-4-azacyclotridecane-11,13-dione]",> 32,4 to 32,> 32,< 4,< 4,4 to 32,–,–,–,–,–,–
"CO[C@]1(C)C[C@@H](C)CN(C)[C@H](C2CN(CC3CCCC3)C2)COC(=O)C(C)(C)C(=O)[C@H](C)[C@H]1O[C@@H]1O[C@H](C)C[C@H](N(C)C)[C@H]1O [Compound 103, (3R,6R,8R,9R,10R)-3-(1-(cyclopentylmethyl)azetidin-3-yl)-9-(((2S,3R,4S,6R)-4-(dimethylamino)-3-hydroxy-6-methyltetrahydro-2H-pyran-2-yl)oxy)-8-methoxy-4,6,8,10,12,12-hexamethyl-1-oxa-4-azacyclotridecane-11,13-dione]",4 to 32,4 to 32,> 32,< 4,< 4,4 to 32,–,–,–,–,–,–
"CO[C@]1(C)C[C@@H](C)CN(C)[C@H]([C@H]2C[C@@H](N(C)C)C2)COC(=O)C(C)(C)C(=O)[C@H](C)[C@H]1O[C@@H]1O[C@H](C)C[C@H](N(C)C)[C@H]1O [Compound 128, (3R,6R,8R,9R,10R)-9-(((2S,3R,4S,6R)-4-(dimethylamino)-3-hydroxy-6-methyltetrahydro-2H-pyran-2-yl)oxy)-3-((1s,3S)-3-(dimethylamino)cyclobutyl)-8-methoxy-4,6,8,10,12,12-hexamethyl-1-oxa-4-azacyclotridecane-11,13-dione]",> 32,> 32,> 32,4 to 32,< 4,4 to 32,–,–,–,–,–,–
CO[C@]1(C)C[C@@H](C)CN(C)[C@@H](C2CCN(C[C@@H]3COC(=O)N3C)CC2)CO[C@@H](O)C(C)(C)C(=O)[C@H](C)[C@H]1O[C@@H]1O[C@H](C)C[C@H](N(C)C)[C@H]1O [Compound 202],> 32,> 32,> 32,–,4 to 32,> 32,–,–,–,–,–,–
"CO[C@]1(C)C[C@@H](C)CN(C)[C@H](C2CN(Cc3cnccn3)C2)COC(=O)C(C)(C)C(=O)[C@H](C)[C@H]1O[C@@H]1O[C@H](C)C[C@H](N(C)C)[C@H]1O [Compound 55, (3R,6R,8R,9R,10R)-9-(((2S,3R,4S,6R)-4-(dimethylamino)-3-hydroxy-6-methyltetrahydro-2H-pyran-2-yl)oxy)-8-methoxy-4,6,8,10,12,12-hexamethyl-3-(1-(pyrazin-2-ylmethyl)azetidin-3-yl)-1-oxa-4-azacyclotridecane-11,13-dione]",> 32,4 to 32,> 32,4 to 32,4 to 32,> 32,–,–,–,–,–,–
CO[C@]1(C)C[C@@H](C)CN(C)[C@@H](C2(CCN(C)CC3CC3)CC2)COC(=O)C(C)(C)C(=O)[C@H](C)[C@H]1O[C@@H]1O[C@H](C)C[C@H](N(C)C)[C@H]1O [Compound 196],> 32,> 32,> 32,–,4 to 32,> 32,–,–,–,–,–,–
CO[C@]1(C)C[C@@H](C)CN(C)[C@@H](C2CCN(C[C@H](CO)N(C)C)CC2)CO[C@@H](O)C(C)(C)C(=O)[C@H](C)[C@H]1O[C@@H]1O[C@H](C)C[C@H](N(C)C)[C@H]1O [Compound 200],> 32,4 to 32,> 32,–,4 to 32,> 32,–,–,–,–,–,–
CO[C@]1(C)C[C@@H](C)CN(C)[C@@H](C2CCN(C[C@@H]3COC(=O)N3)CC2)CO[C@@H](O)C(C)(C)C(=O)[C@H](C)[C@H]1O[C@@H]1O[C@H](C)C[C@H](N(C)C)[C@H]1O [Compound 201],> 32,> 32,> 32,–,4 to 32,> 32,–,–,–,–,–,–
CO[C@]1(C)C[C@@H](C)CN(C)[C@H](C2CN(CC(=O)O)C2)COC(=O)C(C)(C)C(=O)[C@H](C)[C@H]1O[C@@H]1O[C@H](C)C[C@H](N(C)C)[C@H]1O [Compound 203],> 32,> 32,> 32,–,4 to 32,> 32,–,–,–,–,–,–
CO[C@]1(C)C[C@@H](C)CN(C)[C@](C)(C2CCN(C)CC2)COC(=O)C(C)(C)C(=O)[C@H](C)[C@H]1O[C@@H]1O[C@H](C)C[C@H](N(C)C)[C@H]1O [Compound 198],> 32,> 32,> 32,–,> 32,> 32,–,–,–,–,–,–
CO[C@]1(C)C[C@@H](C)CN(C)[C@@H](C2(CCN(C)C(C)=O)CC2)COC(=O)C(C)(C)C(=O)[C@H](C)[C@H]1O[C@@H]1O[C@H](C)C[C@H](N(C)C)[C@H]1O [Compound 197],> 32,> 32,> 32,–,4 to 32,> 32,–,–,–,–,–,–
"CO[C@]1(C)C[C@@H](C)CN(C)[C@H](C2CN(C(=O)CN(C)C)C2)COC(=O)C(C)(C)C(=O)[C@H](C)[C@H]1O[C@@H]1O[C@H](C)C[C@H](N(C)C)[C@H]1O [Compound 28, (3R,6R,8R,9R,10R)-9-(((2S,3R,4S,6R)-4-(dimethylamino)-3-hydroxy-6-methyltetrahydro-2H-pyran-2-yl)oxy)-3-(1-(dimethylglycyl)azetidin-3-yl)-8-methoxy-4,6,8,10,12,12-hexamethyl-1-oxa-4-azacyclotridecane-11,13-dione]",> 32,4 to 32,> 32,< 4,< 4,–,–,–,–,–,–,–
"CO[C@]1(C)C[C@@H](C)CN(C)[C@H](C2CCNCC2)COC(=O)C(C)(C)C(=O)[C@H](C)[C@H]1O[C@@H]1O[C@H](C)C[C@H](N(C)C)[C@H]1O [Compound 80, (3R,6R,8R,9R,10R)-9-(((2S,3R,4S,6R)-4-(dimethylamino)-3-hydroxy-6-methyltetrahydro-2H-pyran-2-yl)oxy)-8-methoxy-4,6,8,10,12,12-hexamethyl-3-(piperidin-4-yl)-1-oxa-4-azacyclotridecane-11,13-dione]",> 32,4 to 32,> 32,4 to 32,< 4,–,–,–,–,–,–,–
"CO[C@]1(C)C[C@@H](C)CN(C)[C@H]([C@H]2CCCN(C)C2)COC(=O)C(C)(C)C(=O)[C@H](C)[C@H]1O[C@@H]1O[C@H](C)C[C@H](N(C)C)[C@H]1O [Compound 171, (3R,6R,8R,9R,10R)-9-(((2S,3R,4S,6R)-4-(dimethylamino)-3-hydroxy-6-methyltetrahydro-2H-pyran-2-yl)oxy)-8-methoxy-4,6,8,10,12,12-hexamethyl-3-((S)-1-methylpiperidin-3-yl)-1-oxa-4-azacyclotridecane-11,13-dione]",> 32,> 32,> 32,4 to 32,4 to 32,–,–,–,–,–,–,–
